Measured values reported in publication PMC11170759, “Advancing Parkinson’s Disease Diagnostics: The Potential of Arylpyrazolethiazole Derivatives for Imaging α-Synuclein Aggregates” (ACS Omega, 2024).
Where “and” joins values, the source holds several entries; their conditions need not be identical. Equal values may be shown once. Each block holds one compound with its values, some of them ahead of it.

Assays:
α-synuclein aggregates = molecular target: α-synuclein aggregates; set-up: method as in PMID 34577548; conditions: literature ligands of Figure 1; read-out: Ki α-syn; cited from earlier work
Aβ1-42 = molecular target: Aβ1-42; set-up: method as in PMID 34577548; conditions: literature ligands of Figure 1; cited from earlier work
[1] = molecular target: human recombinant α-syn fibrils (Homo sapiens, UniProt P37840); experiment: In vitro competition binding assay against [3H]MODAG-001 on α-syn fibrils; conditions: for Ki: competition against 1 nM [3H]MODAG-001, α-syn fibrils 50 nM, mean Ki ± SEM; for binding affinity to α-syn fibrils (in words): competition against [3H]MODAG-001; for selectivity for α-syn over Aβ: ratio of Ki Aβ to Ki α-syn fibrils
Protocol: (§1) The APT library underwent in vitro testing to evaluate its binding affinity to human recombinant α-syn fibrils. Promising compounds were further tested on Aβ fibrils. […] Since the DPP and APT class of compounds share similarities, the APT library was tested in a competition binding assay with [^3H]MODAG-001 to determine its relative binding affinity and inhibition constant (Ki). The binding assay measured the displacement of the radioligand by increasing concentrations of competitor compounds, using fixed concentrations of fibrils and radioligand.
(§2) The dissociation constant (Kd) values of [^3H]MODAG–001 for human recombinant α-syn and synthetic human Aβ1–42 fibrils have previously been determined using saturation binding assays.[30] To determine the relative binding affinity (inhibition constant, Ki) of test compounds, competition binding assays of [^3H]MODAG-001 were performed. […] Human recombinant α-syn (50 nM) and synthetic human Aβ1–42 fibrils (1 μM) diluted in PBS (Gibco DPBS, no calcium, no magnesium, Thermo Fisher Scientific, Waltham, MA, USA) were incubated with increasing concentrations of test compounds (5 pM to 10 μM) against 1 nM [^3H]MODAG–001 in 30 mM Tris–HCl, 0.1% bovine serum albumin, and 0.05% Tween20 in 96-well micro test low-binding plates (ratiolab GmbH, Dreieich, Germany) to a total volume of 200 μL/well. Plates were incubated on a shaker (MaxQ 6000, Thermo Fisher Scientific Inc., Marietta, OH, USA) at 50 rpm for 2 h at 37 °C, covered by removable sealing tapes (PerkinElmer, Waltham, MA, USA). Vacuum filtration and read-out were performed as previously reported (Kuebler, Buss et al. 2021). Briefly, a glass fiber Filtermat B (PerkinElmer, Waltham, MA, USA) incubated with 0.5% polyethylenimine (PEI; Sigma-Aldrich Chemie GmbH, Taufkirchen, Germany) for 30 min at 4 °C before filter harvesting was used with a FilterMate Harvester (PerkinElmer, Waltham, MA, USA). Melt-on scintillator sheets (MeltiLex B/HS, PerkinElmer, Waltham, MA, USA) were molten onto dried filters. Accumulation of tritium was counted in a liquid scintillation Wallac MicroBeta TriLux counter (PerkinElmer, Waltham, MA, USA) at 2 min per well. Radioactivity in counts per minute for each concentration of the test compound was normalized to the radioactivity obtained in the absence of the test compound for conversion to percentage binding of the reference tracer. The resulting values were plotted against increasing concentrations of the test compounds. Data points were fitted using nonlinear regression analysis in GraphPad Prism (GraphPad Software, Inc., Version 8.4.0, La Jolla, CA, USA). The binding curve for [^3H]MODAG-001 saturation assay on α-syn fibrils is reported in the Supporting Information (Figure S6).

[2] = molecular target: T1, synthetic human Aβ1–42 fibrils (Homo sapiens, UniProt P05067); experiment: In vitro competition binding assay against [3H]MODAG-001 on Aβ1–42 fibrils; conditions: for Ki: competition against 1 nM [3H]MODAG-001, Aβ1–42 fibrils 1 μM, mean Ki ± SEM
T1 construct: Synthetic lyophilized human Aβ1–42 peptide; purchased EMC Microcollections GmbH (Tuebingen, Germany); host or cells: chemical synthesis
Protocol: as §1
α-Syn fibrils were generated as the previously reported method.[30] The generation of Aβ1–42 fibril was adapted from Bagchi et al. and previously described by Kuebler et al.[16],[31] Synthetic lyophilized human Aβ1–42 peptide with >90% purity purchased from EMC Microcollections GmbH (Tuebingen, Germany) was dissolved in dimethyl sulfoxide (DMSO; 5 mg in 221.5 μL). Deionized water (4.1 mL) and 1 M Tris–HCl (111 μL, pH 7.6) were added to obtain a final monomeric concentration of 250 μM. Aggregation was induced by incubating the monomers in Eppendorf Thermomixer at 37 °C with shaking at 800 rpm for 72 h. Generated fibrils were sonicated for 3 min in a water bath (Elmasonic S 60H, Elma Schmidbauer GmbH, Singen, Germany). The final products were aliquoted, frozen on dry ice, and stored at −80 °C until use. Aβ1–42 fibril quality was evaluated via thioflavin (ThT) fluorescence and radioligand saturation assay with [^3H]PiB and [^3H]MODAG-001.
as §2

α-syn fibrils = molecular target: α-syn fibrils; set-up: method as in PMID 33369690; conditions: saturation binding, recombinant fibrils; cited from earlier work
Aβ1-42 fibrils = molecular target: Aβ1-42 fibrils; set-up: method as in PMID 33369690; conditions: saturation binding, recombinant fibrils; read-out: Kd Aβ1-42 (reported); cited from earlier work
[3] = LogD determination (octanol/PBS); format: physicochemical; conditions: n = 3
Protocol: The logD was calculated experimentally by adding [^11C]APT-13 (1.5 MBq) to a 1.5 mL Eppendorf vial containing 500 μL of octanol (OCT) and 500 μL of PBS. The vial was vigorously vortexed and then, to achieve effective phase separation, centrifuged. Aliquots of 350 μL were collected from both OCT and PBS phases. The OCT sample was further washed with 350 μL of PBS; the phases mixture was shaken and centrifuged, and 200 μL of both phases were taken into new reaction tubes. The amount of radioactivity in each sample was quantified using a γ-counter. The log OCT/PBS values were calculated from the mean of n = 3 determinations (Table S3).
Table S3. Results from LogD determination assay.
C-11 CPM Description Mean value Mean value * dil

Serum stability assay = format: in vitro ADME; conditions: 37 °C, within 90 min
Protocol: Human serum was obtained from human male AB plasma, USA origin, sterile-filtered (Sigma-Aldrich, St. Louis, MO, USA).
The tracer formulation was mixed with an equal volume of human serum (250 μL) and incubated into a thermo-shaker at 37 °C, 300 rpm. At different time points (0, 15, 30, 60, and 90 min), 70 μL samples were drawn and mixed with ice-cold acetonitrile (1:1 dilution) and quickly vortexed. The dilute sample was incubated for 2 min on ice and centrifuged (MiniSpin centrifuge, Eppendorf) for 2 min at 13,400 rpm. An aliquot of the supernatant (120 μL) was analyzed by analytical radio-HPLC on a Luna C18(2), 5 μm, 250 × 4.6 mm column with 35% ACN in 0.1% aqueous TFA as mobile phase and at a flow rate of 1.5 mL/min in 10 min. The radiolabeled product was eluted at a retention time of 5.9 ± 0.2 min (Figure S5).

[4] = In vivo PET/MR imaging in healthy wild-type mice; set-up: species or system mice (C57BL/6J); conditions: iv
Protocol: To assess the pharmacokinetic profile of [^11C]APT-13 in vivo, wild-type mice (n = 3) were iv injected, and the organ distribution was assessed over 60 min with dynamic PET and anatomical MR imaging (Figure 7A). […] Tracer clearance was largest through the liver (SUV ≈ 5), and high uptake was also observed in the heart (SUV ≈ 6) and lungs (SUV ≈ 5). Uptake with fast clearance was also observed in the kidney, indicating renal excretion within the first few minutes (Figure 7C).
To evaluate the pharmacokinetics of [^11C]APT-13, PET and subsequent MRI scans were performed in healthy mice (female, 21 weeks old, C57BL/6J) to determine brain uptake and washout as well as organ uptake of the liver, lungs, heart, kidneys, and brain. Scans were performed in a small animal Inveon PET scanner (Siemens Healthcare, Erlangen, Germany) and a 7T small animal MRI scanner (Bruker BioSpin GmbH, Ettlingen, Germany). The mice (n = 3) were anesthetized with 1.5% isoflurane evaporated in 100% oxygen at a flow of 0.8 L/min, and a catheter was placed in the tail vein. The body temperature was kept at 37 °C by using a feedback temperature control unit for a heat pump that was connected to the PET bed. Five seconds after the start of the PET acquisition, 15.2 ± 0.5 MBq (410 ± 13 μCi) of [^11C]APT-13 was injected intravenously. PET data were acquired in a dynamic scan for 60 min plus an extra 13 min of transmission measurement with a ^57Co-source for attenuation correction. Subsequently, mice were placed in the same bed position in the MRI, and an anatomical scan was performed using a Turbo RARE T2 sequence. For analysis, the 60 min of acquired PET data were divided into 39-time frames (12 × 5, 6 × 10, 6 × 30, 5 × 60, and 10 × 300 s) and reconstructed using the OSEM3D reconstruction algorithm. The PET scans were coregistered to the whole-body MRI scan using PMOD software (version 4.203; PMOD Technologies, Zürich, Switzerland), and the volume of interest (VOI) of the different organs (liver, lungs, heart, kidney, and brain) were hand-drawn according to the anatomical localization. VOI were selected from the mouse brain atlas in PMOD, time activity curves were extracted, and SUV were calculated by normalizing to the injected activity and animal weight.

T1 sequence (P05067 672-713): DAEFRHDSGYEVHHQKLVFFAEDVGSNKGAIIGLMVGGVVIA

Compound: COc1ccc(/C=C/c2cc(-c3nccs3)on2)cc1 [11b]
- Ki (α-synuclein aggregates): 18.5 ± 9.2 nM
- Ki (Aβ1-42): 91.5 ± 58.7 nM

Compound: c1csc(-c2cc(-c3ccc4c(c3)OCO4)n[nH]2)n1 [APT-1, 2-(3-(Benzo[d][1,3]dioxol-5-yl)-1H-pyrazol-5-yl)thiazole]
- Ki [1]: 145 ± 46 nM
- binding affinity to α-syn fibrils (in words) [1]: moderate affinity
- Ki [2]: 561 nM
- binding to Aβ fibrils (in words) ([2]; competition against [3H]MODAG-001): significantly lower binding

Compound: c1coc(-c2cc(-c3ccc4c(c3)OCO4)n[nH]2)n1 [APT-2, 2-(3-(Benzo[d][1,3]dioxol-5-yl)-1H-pyrazol-5-yl)oxazole]
- Ki [1]: 134 nM

Compound: O=C(/C=C/c1ccc2c(c1)OCO2)c1nccs1 [APT-3, (E)-3-(Benzo[d][1,3]dioxol-5-yl)-1-(thiazol-2-yl)prop-2-en-1-one]
- Ki [1]: > 894 nM

Compound: Brc1csc(-c2cc(-c3ccc4c(c3)OCO4)n[nH]2)n1 [APT-4, 2-(3-(Benzo[d][1,3]dioxol-5-yl)-1H-pyrazol-5-yl)-4-bromothiazole]
- Ki [1]: 50 nM and 49.7 nM
- selectivity for α-syn over Aβ [1]: > 8 fold
- Ki [2]: 1030 ± 562 nM

Compound: CN(C)c1ccc(-c2cc(-c3nccs3)[nH]n2)cc1 [APT-5, N,N-Dimethyl-4-(5-(thiazol-2-yl)-1H-pyrazol-3-yl)aniline]
- Ki [1]: 217 nM

Compound: FCCNc1ccc(-c2cc(-c3nccs3)[nH]n2)cc1 [APT-6, N-(2-Fluoroethyl)-4-(5-(thiazol-2-yl)-1H-pyrazol-3-yl)aniline]
- Ki [1]: 184 nM
- binding affinity to α-syn fibrils (in words) [1]: modest affinity

Compound: CNc1ccc(-c2cc(-c3nccs3)[nH]n2)cc1 [APT-7, N-Methyl-4-(5-(thiazol-2-yl)-1H-pyrazol-3-yl)aniline]
- Ki [1]: 45 nM and 44.5 nM
- selectivity for α-syn over Aβ [1]: > 20 fold
- Ki [2]: 381 ± 217 nM

Compound: Cn1nc(-c2ccc3c(c2)OCO3)cc1-c1nccs1 [APT-8, 2-(3-(Benzo[d][1,3]dioxol-5-yl)-1-methyl-1H-pyrazol-5-yl)thiazole]
- Ki [1]: > 14200 nM

Compound: O=C(/C=C/C=C/C=C/c1ccc([N+](=O)[O-])cc1)c1ccc(OCC(O)CF)cc1 (centres unmarked) [FHCL-2]
- Ki (α-synuclein aggregates): 3.4 ± 0.1 nM
- Ki Aβ1-42 (Aβ1-42): no competition

Compound: CN(C)c1ccc(-c2cc(-c3ccnc(Br)c3)[nH]n2)cc1 [MODAG-001]
- Kd (α-syn fibrils): 0.6 ± 0.1 nM
- Kd (Aβ1-42 fibrils): 20 ± 10 nM

Compound: Fc1ccc(-c2csc(-c3nc(-c4cnc5c(c4)OCO5)cs3)n2)cn1 [d8]
- Ki (α-synuclein aggregates): 0.1 nM
- Ki (Aβ1-42): 386 nM

Now from value to compound:

- Ki [1]: 187 nM
- binding affinity to α-syn fibrils (in words) [1]: poor binding
- Ki [2]: 230 nM
Compound: Brc1cnc(-c2cc(-c3ccc4c(c3)OCO4)n[nH]2)s1 [APT-9, 2-(3-(Benzo[d][1,3]dioxol-5-yl)-1H-pyrazol-5-yl)-5-bromothiazole]

- Ki [1]: 818.4 ± 1.8 nM
Compound: Fc1csc(-c2cc(-c3ccc4c(c3)OCO4)n[nH]2)n1 [APT-10, 2-(3-(Benzo[d][1,3]dioxol-5-yl)-1H-pyrazol-5-yl)-4-fluorothiazole]

- Ki [1]: 1010 ± 34 nM
- Ki [2]: 377 nM
Compound: CNc1ccc(/C=C/C(=O)c2nccs2)cc1 [APT-11, (E)-3-(4-(Methylamino)phenyl)-1-(thiazol-2-yl)prop-2-en-1-one]

- Ki [1]: 198 ± 142 nM
- Ki [2]: 587 nM
Compound: CNc1ccc(/C=C/C(=O)c2nc(Br)cs2)cc1 [APT-12, (E)-1-(4-Bromothiazol-2-yl)-3-(4-(methylamino)phenyl)prop-2-en-1-one]

- Ki [1]: 27.8 ± 9.7 nM
- Ki [2]: 92.6 ± 48.8 nM
Compound: CNc1ccc(-c2cc(-c3nc(Br)cs3)[nH]n2)cc1 [APT-13, 4-(5-(4-Bromothiazol-2-yl)-1H-pyrazol-3-yl)-N-methylaniline]

- binding affinity to α-syn fibrils (in words) [1]: loss of competition
Compound: Cn1nc(-c2ccc3c(c2)OCO3)cc1-c1nc(Br)cs1 [APT-14, 2-(3-(Benzo[d][1,3]dioxol-5-yl)-1-methyl-1H-pyrazol-5-yl)-4-bromothiazole]

- logD [3]: 3.16
- stability in human serum (Serum stability assay): did not show evidence of degradation
- SUV heart ([4]; n = 3): ≈ 6
- SUV liver ([4]; n = 3): ≈ 5
- SUV lungs ([4]; n = 3): ≈ 5
- peak SUV in brain ([4]; n = 3, dynamic PET 60 min): 1.94 ± 0.29
Compound: [11CH3]Nc1ccc(-c2cc(-c3nc(Br)cs3)[nH]n2)cc1 [[^11C]APT-13]
